According to paper PMC8116058, “De novo macrocyclic peptides dissect energy coupling of a heterodimeric ABC transporter by multimode allosteric inhibition” (eLife, 2021):
Positions of bridges follow the written chain, without caps; N, C: chain ends. Non-standard residues stand in square brackets, D forms with d. Residues, ends and D or L forms follow the SMILES beside them. *: point of attachment. 5FAM = O=C1OC2(c3ccc(O)cc3Oc3cc(O)ccc32)c2ccc(C(=O)*)cc21; βAla = NCCC(=O)O

How the values were obtained:
TmrAB [1] = experiment: Competition of CP^F binding by substrate peptides (fluorescence anisotropy); set-up: species or system Thermus thermophilus
From the text: (§1) To elucidate the mechanistic basis for the inhibition of ATP hydrolysis and substrate transport, we investigated the effects of CPs on substrate binding. In the first approach, fluorescent CP^Fs were used as reporters in fluorescence polarization. […] In addition, we examined the impact of CP^Bs on ATP binding to TmrAB by scintillation proximity assays (SPA) (Figure 4C). […] Taken together, CPs are high-affinity allosteric inhibitors of TmrAB that leave ATP binding and substrate interaction largely unaffected, while impairing ATP hydrolysis and substrate translocation across the membrane.
(§2) Figure 4. […] (A) CP^Fs binding TmrAB is not affected by substrate peptide binding. […] For competition, C4^ATTO655 peptide (2 µM) or R9LQK peptide (200 µM) were added. (B) Binding of C4F peptide is not affected by CP^Bs. C4F peptides (50 nM) were mixed with TmrAB (4 µM), and fluorescence anisotropy was monitored as described in (A). For competition, C4^ATTO655 (10 µM) or CP^Bs (6 µM) were added. […] TmrAB (0.2 µM) were immobilized on SPA beads and incubated with ATP (3 μM, traced with ^3H-ATP) in the presence and absence of CP^Bs (1 µM each) for 30 min on ice. ATP binding was monitored by SPA. Background values were determined after releasing TmrAB complexes from the beads by adding imidazole (200 mM). The background signal in the absence of CP^Bs was set to 0 cpm. […] As this is an equilibrium experiment, this can be rationalized by the fact that CP13 stabilizes the ATP-bound OF conformer. Figure 4—source data 1. Source data for Figure 4.
(§3) To determine equilibrium binding constants, CP^Fs (50 nM) were incubated with increasing concentrations of TmrAB-containing or empty liposomes. To probe the conformational selectivity, CP^Fs (50 nM) were mixed with detergent-solubilized IF TmrAB or OF TmrA^EQB. Before, OF TmrA^EQB was nucleotide-trapped by incubation with ATP (1 mM) and MgCl2 (3 mM) in the absence of CP^Fs for 5 min at 45°C. […] For peptide competition studies, RRYC^fluoresceinKSTEL (C4F, 50 nM) were incubated with detergent-solubilized TmrAB (4 µM), CP^Bs (6 µM), or C4^ATTO655 (10 µM). […] Fluorescence anisotropy was analyzed at λex/em of 485/520 nm using a microplate reader (CLARIOstar, BMG LABTECH). Fluorescence anisotropy was calculated using:(1) r=I||−I⊥/I||+2⋅I⊥ with I||: parallel intensity and I⊥: perpendicular intensity. Binding of CP^Fs were fitted by a one-site binding model (Langmuir 1:1) using:(2) Y=Bmax∙[L]/KD+[L] with Y: binding, Bmax: maximal binding, KD: equilibrium dissociation constant, and [L]: ligand concentration. Data represent mean ± SD from three experiments.

TmrAB [2] = experiment: Competition of C4F peptide binding by CP^Bs (fluorescence anisotropy); set-up: species or system Thermus thermophilus; conditions: C4F 50 nM + TmrAB 4 µM + competitor (CP^B 6 µM or C4^ATTO655 10 µM)
From the text: as §1, §2, §3

TmrAB in liposomes = experiment: Filter-based transport assay, inhibition of C4F translocation; type: biochemical, Thermus thermophilus; conditions: C4F 3 µM, CP^F 1 µM, 15 min 45°C; for Transported C4F peptide: TmrAB 0.4 µM
From the text: In order to investigate the functional impact of CPs, we examined the effect of the CPs on ATP hydrolysis and substrate transport of TmrAB (Figure 3A). We reconstituted TmrAB in liposomes and first assayed the ATPase activity. […] We next set out to investigate peptide transport by TmrAB using a filter-based transport assay. To investigate whether CPs are recognized as substrates by TmrAB, we added fluorescein-labeled CP^Fs and examined ATP-dependent translocation. In contrast to the linear substrate peptide C4F, none of the CP^Fs were transported by TmrAB (Figure 3C). Next, we examined ATP-dependent transport of C4F peptides in the presence and absence of the different CPs.
Figure 3. CP^Fs are potent inhibitors of ATP turnover and substrate transport. (A) Experimental scheme of ATP hydrolysis and peptide transport by TmrAB. (B) CP^Fs inhibit ATP hydrolysis. TmrAB in liposomes (100 nM) was incubated with ATP (2 mM, traced with [γ^32P]-ATP), and MgCl2 (5 mM) in the presence and absence of CP^Fs (1 µM) for 10 min at 45°C. Autohydrolysis was determined in the absence of TmrAB, and background turnover was conducted in the presence of EDTA (10 mM). Release of [γ^32P] was quantified by thin layer chromatography. (C) CP^Fs are not transported by TmrAB. TmrAB (0.4 µM) reconstituted in liposomes was incubated with C4F peptide (3 µM) or CP^Fs (1 µM) in the presence of ATP/ADP (3 mM) and MgCl2 (5 mM) for 5 min at 45°C. Since CP^Fs were dissolved in maximal 0.5% (v/v) of DMSO, C4F plus 0.5% DMSO served as control. Proteoliposomes were washed on filter plates, and transported peptides were quantified at λex/em = 485/520 nm. (D) Inhibition of substrate translocation. TmrAB in liposomes (0.4 µM) were incubated with C4F peptide (3 µM), ATP/ADP (3 mM), and MgCl2 (5 mM) in the presence and absence of CP^Fs (1 µM) for 15 min at 45°C. Transported peptides were quantified as described in (C). In (B–C), mean values ± SD (n = 3) are shown. Figure 3—source data 1. Source data for Figure 3.
TmrAB in liposomes (0.4 µM) were incubated with ATP/ADP (3 mM), MgCl2 (5 mM), C4F peptide (3 µM), and CP^Fs (1 µM) for 15 min at 45°C. […] Proteoliposomes were solubilized by adding SDS (1% [v/v]) in transport buffer for 10 min at 20°C. Transported peptides were quantified at λex/em = 485/520 nm using a microplate reader (CLARIOstar, BMG LABTECH).

[3] = CP^F 50 nM + TmrAB + competitor C4^ATTO655 peptide 2 µM
[4] = CP^F 50 nM + TmrAB + competitor R9LQK peptide 200 µM
[5] = listed as -: CP^F 50 nM before addition of TmrAB
[6] = listed as TmrAB: CP^F 50 nM + TmrAB 0.5-0.7 µM, no competitor
[7] = ADP 3 mM (background), without CP 0.01

Compound | Bound CP^F, fluorescence anisotropy (TmrAB [1]; [3]) | Bound CP^F, fluorescence anisotropy (TmrAB [1]; [4]) | Bound CP^F, fluorescence anisotropy (TmrAB [1]; [5]) | Bound CP^F, fluorescence anisotropy (TmrAB [1]; [6]) | Bound C4F peptide, fluorescence anisotropy (TmrAB [2]) | Transported C4F peptide (TmrAB in liposomes; [7]) | Transported C4F peptide (TmrAB in liposomes; ATP 3 mM, without CP 1.66) | Effect on ATP-dependent C4F peptide translocation (TmrAB in liposomes)
CC[C@H](C)[C@@H]1NC(=O)[C@H]([C@@H](C)O)NC(=O)[C@H](CC(C)C)NC(=O)[C@H](Cc2c[nH]c3ccccc23)NC(=O)[C@H](Cc2ccccc2)NC(=O)[C@H](CC(N)=O)NC(=O)[C@H](CCC(=O)O)NC(=O)[C@H](CC(C)C)NC(=O)[C@H](CS)NC(=O)[C@H](Cc2c[nH]cn2)NC(=O)[C@H](CO)NC(=O)[C@@H](Cc2ccc(O)cc2)NC(=O)CSC[C@@H](C(=O)NCC(=O)N[C@@H](CO)C(=O)NCCC(=O)NCCC(=O)N[C@@H](CCCNC(=N)N)C(=O)N[C@@H](CCCCNC(=O)c2ccc3c(c2)C(=O)OC32c3ccc(O)cc3Oc3cc(O)ccc32)C(N)=O)NC(=O)[C@H](CC(C)C)NC1=O [CP6] ({CH2CO}-[dY]SHCLENFWLTILCGS[βAla][βAla]RK(5FAM)-NH2; thioether N-14) | 0.109 | 0.101 | 0.022 | 0.111 | 0.124 | 0.37 µmol·g/min | 0.29 µmol·g/min | completely blocked peptide translocation
CC(C)[C@@H]1NC(=O)[C@H](Cc2ccccc2)NC(=O)[C@@H]2CCCN2C(=O)[C@H](CC(N)=O)NC(=O)[C@H](Cc2c[nH]c3ccccc23)NC(=O)[C@H](C(C)C)NC(=O)[C@H](Cc2ccc(O)cc2)NC(=O)[C@H](Cc2ccccc2)NC(=O)[C@@H](Cc2ccc(O)cc2)NC(=O)CSC[C@@H](C(=O)NCC(=O)N[C@@H](CO)C(=O)NCCC(=O)NCCC(=O)N[C@@H](CCCNC(=N)N)C(=O)N[C@@H](CCCCNC(=O)c2ccc3c(c2)C(=O)OC32c3ccc(O)cc3Oc3cc(O)ccc32)C(N)=O)NC(=O)[C@H](CCCCN)NC(=O)[C@H](Cc2ccccc2)NC1=O [CP14] ({CH2CO}-[dY]FYVWNPFVFKCGS[βAla][βAla]RK(5FAM)-NH2; thioether N-12; C-terminus assumed) | 0.143 | 0.140 | 0.027 | 0.141 | 0.136 | 0.15 µmol·g/min | 0.41 µmol·g/min | only caused a partial inhibition
CC(C)C[C@@H]1NC(=O)[C@H](Cc2ccccc2)NC(=O)CNC(=O)[C@H](CO)NC(=O)[C@H](Cc2ccccc2)NC(=O)[C@H](CC(=O)O)NC(=O)[C@@H]2CCCN2C(=O)[C@H]([C@@H](C)O)NC(=O)[C@@H](Cc2ccc(O)cc2)NC(=O)CSC[C@@H](C(=O)NCC(=O)N[C@@H](CO)C(=O)NCCC(=O)NCCC(=O)N[C@@H](CCCNC(=N)N)C(=O)N[C@@H](CCCCNC(=O)c2ccc3c(c2)C(=O)OC32c3ccc(O)cc3Oc3cc(O)ccc32)C(N)=O)NC(=O)[C@H](C)NC(=O)[C@H](CC(N)=O)NC(=O)[C@H](CCCNC(=N)N)NC(=O)[C@H](CC(C)C)NC(=O)[C@H](Cc2ccccc2)NC(=O)[C@H](C)NC1=O [CP12] ({CH2CO}-[dY]TPDFSGFLAFLRNACGS[βAla][βAla]RK(5FAM)-NH2; thioether N-16) | 0.160 | 0.155 | 0.025 | 0.168 | 0.128 | 0.41 µmol·g/min | 0.41 µmol·g/min | completely blocked peptide translocation
CC[C@H](C)[C@@H]1NC(=O)[C@H](Cc2c[nH]c3ccccc23)NC(=O)[C@H](CC(N)=O)NC(=O)[C@H](C)NC(=O)[C@H](CO)NC(=O)[C@@H]2CCCN2C(=O)[C@H](CC(=O)O)NC(=O)[C@@H](Cc2ccc(O)cc2)NC(=O)CSC[C@@H](C(=O)NCC(=O)N[C@@H](CO)C(=O)NCCC(=O)NCCC(=O)N[C@@H](CCCNC(=N)N)C(=O)N[C@@H](CCCCNC(=O)c2ccc3c(c2)C(=O)OC32c3ccc(O)cc3Oc3cc(O)ccc32)C(N)=O)NC(=O)[C@H]([C@@H](C)O)NC(=O)[C@H](CC(C)C)NC(=O)[C@H](CC(C)C)NC(=O)[C@H](C(C)C)NC(=O)[C@H](CC(C)C)NC1=O [CP13] ({CH2CO}-[dY]DPSANWILVLLTCGS[βAla][βAla]RK(5FAM)-NH2; thioether N-14; C-terminus assumed) | 0.122 | 0.123 | 0.025 | 0.127 | 0.141 | 0.25 µmol·g/min | 0.41 µmol·g/min | only caused a partial inhibition
